Earlier results on 2 compounds are cited in US20060052437A1, “Combination of an hmg-coa reductase inhibitor and a nitrate ester” (priority 2002, published 2006).

For data set [1] the following is noted: compared to aspirin.
The conditions of data set [2]: at withdrawal from the market, August 2001.

Take `CC(=O)Oc1ccccc1C(=O)Oc1cccc(CO[N+](=O)[O-])c1` [NCX-4016, 2-acetyloxy-benzoic acid 3-nitroxymethyl-phenyl ester]: the “toxicity at gastric level” value in data set [1] is “not toxic at gastric level”. Regarding `COCc1c(C(C)C)nc(C(C)C)c(/C=C/[C@@H](O)C[C@@H](O)CC(=O)O)c1-c1ccc(F)cc1` [cerivastatin], the “deaths attributable to rhabdomyolysis” value in data set [2] is given as 52 deaths.
